Like-named read-outs stand apart in the source and are kept apart here.
Assays:
[1] = target: pCDR2 (ABC) efflux pump in S. cerevisiae YEM-37 (Candida albicans, UniProt P78595); test: cell-based; type: cell-based, C. albicans
[2] = system: YEM 24 C. albicans ΔCDR1, ΔCDR2; test: microbe, parasite or virus in culture; type: cell-based; conditions: YEM 24, 24 hrs, 80% inhibition; for MIC of compound in the presence of fluconazole (+): 1/8 × MIC of fluconazole
[3] = system: YEM 17 C. glabrata, CgCDR up; type: cell-based; conditions: 24 hrs, 80% inhibition; for MIC of compound in the presence of fluconazole (+): 1/8 × MIC of fluconazole
[4] = system: YEM 53 C. krusei; test: FEPI MIC with/without 1/8 fluconazole MIC at 24 hrs (Table 11); type: cell-based
[5] = system: Aspergillus fumigatus; test: FEPI MICs in combination with 1/4 the azole's MIC (Table 12); type: cell-based; design: FEPI MIC (alone): unit not given here; conditions: for FEPI MIC with itraconazole, 60% Inh / FEPI MIC with itraconazole, 80% Inh: itraconazole 0.063 μg/ml (1/4 MIC); for FEPI MIC with ketoconazole, 60% Inh / FEPI MIC with ketoconazole, 80% Inh: ketoconazole 4 μg/ml (1/4 MIC); for FEPI MIC (alone): no azole, 35° C., CM Broth
Procedure: The combinations were tested against a series of Candida strain with known expression of efflux pumps or with complete deletion of all known pumps and Aspergillus fumigatus. Results are reported as minimum inhibitory concentration (MIC) of […] in the presence or absence of […]. A total of 27 distinct milbemycins were studied.

[6] = system: YEM 30 C. albicans wt; test: FEPI MIC with/without 1/8 fluconazole MIC at 24 hrs (Table 11); type: cell-based
[7] = system: YEM 27 C. albicans ΔCDR1ΔCDR2 ΔBENΔFLU1; test: microbe, parasite or virus in culture; type: cell-based; conditions: YEM 27, 24 hrs, 80% inhibition; for MIC of compound in the presence of fluconazole (+): 1/8 × MIC of fluconazole
[8] = target: pCgCDR (ABC) efflux pump in S. cerevisiae YEM-39 (Candida glabrata, UniProt Q6FK23); test: cell-based; type: cell-based, C. glabrata
[9] = target: pFLU (MF) efflux pump in S. cerevisiae YEM-38 (Candida albicans, UniProt G1UB37); test: cell-based; type: cell-based, C. albicans
[10] = target: pCDRI (ABC) efflux pump in S. cerevisiae YEM-1 (Candida albicans, UniProt P43071); test: cell-based; type: cell-based, C. albicans
[11] = system: YEM 51 C. glabrata wt; test: FEPI MIC with/without 1/8 fluconazole MIC at 24 hrs (Table 11); type: cell-based
[12] = system: YEM 13 C. albicans BEN up; test: microbe, parasite or virus in culture; type: cell-based; conditions: YEM 13, 24 hrs, 80% inhibition; for MIC of compound in the presence of fluconazole (+): 1/8 × MIC of fluconazole
[13] = target: pBEN (MF) efflux pump in S. cerevisiae YEM-2 (Candida albicans, UniProt P28873); test: cell-based; type: cell-based, C. albicans
[14] = system: pCgBEN (MF) efflux pump in S. cerevisiae YEM-40; type: cell-based, C. glabrata
[15] = system: YEM 15 C. albicans, CDR1CDR2 up; test: microbe, parasite or virus in culture; type: cell-based; conditions: YEM 15, 24 hrs, 80% inhibition; for MIC of compound in the presence of fluconazole (+): 1/8 × MIC of fluconazole
[16] = YEM-40 pCgBEN, fluconazole fixed at FLUhalf 2.8
[17] = YEM-37 pCDR2, fluconazole fixed at FLUhalf 1
[18] = YEM 53, 1/8 × MIC of fluconazole, 24 hrs, 80% inhibition
[19] = fluconazole 32 μg/ml (1/4 MIC), 60% inhibition
[20] = fluconazole 32 μg/ml (1/4 MIC), 80% inhibition
[21] = YEM 30, 1/8 × MIC of fluconazole, 24 hrs, 80% inhibition
[22] = YEM-39 pCgCDR, fluconazole fixed at FLUhalf 4
[23] = YEM-38 pFLU, fluconazole fixed at FLUhalf 2
[24] = YEM-1 pCDRI, fluconazole fixed at FLUhalf 5.6
[25] = YEM 51, 1/8 × MIC of fluconazole, 24 hrs, 80% inhibition
[26] = YEM-2 pBEN, fluconazole fixed at FLUhalf 5.6

pCDRI (ABC) efflux pump in S. cerevisiae YEM-1, sequence (P43071 whole entry): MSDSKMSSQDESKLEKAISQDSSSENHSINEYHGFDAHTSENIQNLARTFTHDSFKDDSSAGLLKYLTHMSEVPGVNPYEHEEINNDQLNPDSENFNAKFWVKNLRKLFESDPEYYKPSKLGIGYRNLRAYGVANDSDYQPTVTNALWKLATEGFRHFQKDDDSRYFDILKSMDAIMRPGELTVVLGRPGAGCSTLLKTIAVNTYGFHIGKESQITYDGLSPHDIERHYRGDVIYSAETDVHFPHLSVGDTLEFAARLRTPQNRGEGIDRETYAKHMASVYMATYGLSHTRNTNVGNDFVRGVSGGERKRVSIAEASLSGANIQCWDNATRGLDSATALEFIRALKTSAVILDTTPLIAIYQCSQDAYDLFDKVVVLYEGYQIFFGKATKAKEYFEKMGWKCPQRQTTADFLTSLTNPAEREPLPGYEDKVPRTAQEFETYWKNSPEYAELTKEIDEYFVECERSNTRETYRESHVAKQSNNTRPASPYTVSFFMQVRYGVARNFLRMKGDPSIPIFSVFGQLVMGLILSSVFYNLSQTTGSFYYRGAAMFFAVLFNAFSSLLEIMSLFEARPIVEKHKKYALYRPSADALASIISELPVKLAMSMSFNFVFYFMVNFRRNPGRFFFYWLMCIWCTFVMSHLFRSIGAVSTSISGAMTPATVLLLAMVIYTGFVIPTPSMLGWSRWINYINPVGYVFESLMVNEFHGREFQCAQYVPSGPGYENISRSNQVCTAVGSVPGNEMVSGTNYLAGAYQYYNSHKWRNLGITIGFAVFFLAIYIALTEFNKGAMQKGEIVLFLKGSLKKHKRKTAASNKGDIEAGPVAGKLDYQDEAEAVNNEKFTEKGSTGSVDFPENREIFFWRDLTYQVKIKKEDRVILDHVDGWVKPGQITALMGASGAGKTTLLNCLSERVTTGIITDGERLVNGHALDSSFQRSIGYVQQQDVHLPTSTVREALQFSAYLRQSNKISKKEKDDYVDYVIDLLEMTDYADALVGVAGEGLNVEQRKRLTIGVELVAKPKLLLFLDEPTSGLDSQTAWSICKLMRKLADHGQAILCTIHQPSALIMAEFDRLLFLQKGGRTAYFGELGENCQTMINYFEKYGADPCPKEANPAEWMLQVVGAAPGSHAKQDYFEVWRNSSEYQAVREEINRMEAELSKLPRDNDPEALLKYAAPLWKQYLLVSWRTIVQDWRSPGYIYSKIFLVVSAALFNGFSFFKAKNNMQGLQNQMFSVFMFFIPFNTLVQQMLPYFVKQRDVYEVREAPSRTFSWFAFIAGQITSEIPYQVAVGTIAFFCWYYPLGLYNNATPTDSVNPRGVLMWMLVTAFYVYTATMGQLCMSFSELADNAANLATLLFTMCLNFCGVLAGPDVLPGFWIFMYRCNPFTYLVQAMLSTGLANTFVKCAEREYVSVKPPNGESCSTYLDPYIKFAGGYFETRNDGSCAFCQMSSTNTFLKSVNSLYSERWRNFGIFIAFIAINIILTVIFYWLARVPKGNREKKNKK
pCgCDR (ABC) efflux pump in S. cerevisiae YEM-39, sequence (Q6FK23 whole entry): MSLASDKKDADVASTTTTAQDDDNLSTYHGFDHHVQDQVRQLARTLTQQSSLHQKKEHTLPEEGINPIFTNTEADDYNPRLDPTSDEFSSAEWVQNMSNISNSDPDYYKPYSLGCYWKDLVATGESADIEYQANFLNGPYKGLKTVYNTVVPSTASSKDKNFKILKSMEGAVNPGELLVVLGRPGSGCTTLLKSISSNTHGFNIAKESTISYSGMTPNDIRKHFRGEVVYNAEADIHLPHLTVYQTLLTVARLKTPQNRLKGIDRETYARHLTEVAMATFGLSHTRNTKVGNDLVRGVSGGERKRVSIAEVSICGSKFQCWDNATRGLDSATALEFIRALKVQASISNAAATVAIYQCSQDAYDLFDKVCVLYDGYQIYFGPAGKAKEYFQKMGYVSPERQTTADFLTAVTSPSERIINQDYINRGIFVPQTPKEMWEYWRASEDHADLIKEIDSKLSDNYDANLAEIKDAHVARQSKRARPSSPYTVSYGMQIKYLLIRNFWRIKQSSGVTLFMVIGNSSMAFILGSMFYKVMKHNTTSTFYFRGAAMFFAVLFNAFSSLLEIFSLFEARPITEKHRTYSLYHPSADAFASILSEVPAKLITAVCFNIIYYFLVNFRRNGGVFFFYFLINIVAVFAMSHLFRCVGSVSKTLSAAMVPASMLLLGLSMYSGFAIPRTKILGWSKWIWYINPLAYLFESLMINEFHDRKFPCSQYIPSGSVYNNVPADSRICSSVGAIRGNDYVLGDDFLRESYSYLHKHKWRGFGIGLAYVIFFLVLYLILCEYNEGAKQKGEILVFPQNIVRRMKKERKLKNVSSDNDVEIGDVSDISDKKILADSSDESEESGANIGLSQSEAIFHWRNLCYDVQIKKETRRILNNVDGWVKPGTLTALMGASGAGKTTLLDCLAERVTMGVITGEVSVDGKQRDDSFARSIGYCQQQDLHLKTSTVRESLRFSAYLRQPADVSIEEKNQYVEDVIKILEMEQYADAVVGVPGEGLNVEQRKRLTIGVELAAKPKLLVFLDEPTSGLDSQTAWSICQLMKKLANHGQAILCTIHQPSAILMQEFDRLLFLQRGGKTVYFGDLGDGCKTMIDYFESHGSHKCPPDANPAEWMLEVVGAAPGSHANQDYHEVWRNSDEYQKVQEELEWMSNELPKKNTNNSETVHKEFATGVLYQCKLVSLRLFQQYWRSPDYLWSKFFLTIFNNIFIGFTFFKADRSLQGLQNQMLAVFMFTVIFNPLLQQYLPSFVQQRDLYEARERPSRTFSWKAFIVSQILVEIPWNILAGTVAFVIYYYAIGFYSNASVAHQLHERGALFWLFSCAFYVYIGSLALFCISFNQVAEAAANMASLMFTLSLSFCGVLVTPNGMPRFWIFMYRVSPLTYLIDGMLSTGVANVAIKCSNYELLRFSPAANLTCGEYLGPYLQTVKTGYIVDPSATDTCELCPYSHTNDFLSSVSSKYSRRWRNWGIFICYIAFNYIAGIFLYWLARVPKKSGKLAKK
pCDR2 (ABC) efflux pump in S. cerevisiae YEM-37, sequence (P78595 whole entry): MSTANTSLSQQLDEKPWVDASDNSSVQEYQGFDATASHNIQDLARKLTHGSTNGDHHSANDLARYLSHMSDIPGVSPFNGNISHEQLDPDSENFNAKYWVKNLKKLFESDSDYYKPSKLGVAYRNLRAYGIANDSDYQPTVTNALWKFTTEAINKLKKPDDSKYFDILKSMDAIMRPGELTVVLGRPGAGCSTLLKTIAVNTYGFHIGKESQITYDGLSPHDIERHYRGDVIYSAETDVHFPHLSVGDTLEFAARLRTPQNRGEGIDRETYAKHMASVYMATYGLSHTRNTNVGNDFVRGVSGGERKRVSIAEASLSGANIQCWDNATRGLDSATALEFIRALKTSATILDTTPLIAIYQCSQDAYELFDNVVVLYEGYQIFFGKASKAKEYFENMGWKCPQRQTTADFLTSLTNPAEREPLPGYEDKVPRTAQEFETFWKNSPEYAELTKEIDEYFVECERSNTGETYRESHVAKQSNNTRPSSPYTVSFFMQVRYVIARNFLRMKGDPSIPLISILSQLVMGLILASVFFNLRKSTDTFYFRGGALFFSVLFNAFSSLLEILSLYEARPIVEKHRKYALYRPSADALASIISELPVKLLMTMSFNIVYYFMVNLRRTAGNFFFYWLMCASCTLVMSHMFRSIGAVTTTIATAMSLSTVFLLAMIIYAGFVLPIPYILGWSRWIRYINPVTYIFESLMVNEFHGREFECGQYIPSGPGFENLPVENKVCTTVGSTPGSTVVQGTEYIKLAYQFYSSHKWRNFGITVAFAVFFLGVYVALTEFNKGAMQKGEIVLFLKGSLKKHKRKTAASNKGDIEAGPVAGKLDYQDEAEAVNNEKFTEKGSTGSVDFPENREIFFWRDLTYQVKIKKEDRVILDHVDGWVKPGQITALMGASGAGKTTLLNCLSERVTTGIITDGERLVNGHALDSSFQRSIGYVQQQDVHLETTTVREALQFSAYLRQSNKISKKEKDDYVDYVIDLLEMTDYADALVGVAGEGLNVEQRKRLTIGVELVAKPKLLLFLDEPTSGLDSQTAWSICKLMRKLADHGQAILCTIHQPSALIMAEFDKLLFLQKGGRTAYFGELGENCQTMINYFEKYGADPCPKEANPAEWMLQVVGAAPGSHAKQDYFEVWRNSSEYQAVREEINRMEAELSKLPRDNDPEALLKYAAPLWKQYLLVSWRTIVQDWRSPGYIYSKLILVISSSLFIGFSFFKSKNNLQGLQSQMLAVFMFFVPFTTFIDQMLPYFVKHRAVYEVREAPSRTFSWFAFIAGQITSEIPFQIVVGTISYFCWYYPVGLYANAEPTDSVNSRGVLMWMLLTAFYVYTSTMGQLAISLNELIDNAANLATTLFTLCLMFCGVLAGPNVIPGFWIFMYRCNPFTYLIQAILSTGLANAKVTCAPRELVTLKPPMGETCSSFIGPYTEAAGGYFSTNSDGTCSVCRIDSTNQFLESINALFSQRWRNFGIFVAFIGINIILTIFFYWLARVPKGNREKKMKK
pFLU (MF) efflux pump in S. cerevisiae YEM-38, sequence (G1UB37 whole entry): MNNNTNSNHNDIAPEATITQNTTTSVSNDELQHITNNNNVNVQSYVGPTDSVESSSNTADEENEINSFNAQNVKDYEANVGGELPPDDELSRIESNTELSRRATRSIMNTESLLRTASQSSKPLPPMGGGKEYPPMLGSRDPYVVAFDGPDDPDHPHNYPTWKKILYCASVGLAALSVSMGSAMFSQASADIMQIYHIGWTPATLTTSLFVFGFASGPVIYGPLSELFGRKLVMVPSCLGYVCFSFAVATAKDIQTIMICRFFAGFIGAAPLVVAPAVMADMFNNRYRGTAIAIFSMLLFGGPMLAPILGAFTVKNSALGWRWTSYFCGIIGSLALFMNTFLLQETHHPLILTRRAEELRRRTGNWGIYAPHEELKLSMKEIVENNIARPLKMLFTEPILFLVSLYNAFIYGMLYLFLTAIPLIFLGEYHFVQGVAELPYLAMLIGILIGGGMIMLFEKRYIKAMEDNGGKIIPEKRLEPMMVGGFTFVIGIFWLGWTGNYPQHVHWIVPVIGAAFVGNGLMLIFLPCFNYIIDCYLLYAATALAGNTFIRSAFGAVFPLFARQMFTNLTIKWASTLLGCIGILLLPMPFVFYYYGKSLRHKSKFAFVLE

Row | Compound | MIC of compound in the presence of fluconazole (+) [2] [µg/mL] | MIC of compound in the absence of fluconazole (−) [2] [µg/mL] | MIC of compound in the presence of fluconazole (+) [3] [µg/mL] | MIC of compound in the absence of fluconazole (−) [3] [µg/mL] | MIC of compound in the presence of fluconazole (+) [4] [µg/mL] | MIC of compound in the absence of fluconazole (−) ([4]; YEM 53, 24 hrs, 80% inhibition) [µg/mL] | FEPI MIC with fluconazole, 60% Inh [5] | FEPI MIC with itraconazole, 60% Inh ([5]; 60% inhibition) | FEPI MIC with itraconazole, 80% Inh ([5]; 80% inhibition) | FEPI MIC with ketoconazole, 60% Inh ([5]; 60% inhibition) | FEPI MIC with ketoconazole, 80% Inh ([5]; 80% inhibition) | FEPI MIC (alone) ([5]; 80% inhibition) | MIC of compound in the absence of fluconazole (−) ([6]; YEM 30, 24 hrs, 80% inhibition) [µg/mL] | MIC of compound in the presence of fluconazole (+) [7] [µg/mL] | MIC of compound in the absence of fluconazole (−) [7] [µg/mL] | MIC of compound in the absence of fluconazole (−) ([11]; YEM 51, 24 hrs, 80% inhibition) [µg/mL] | MIC of compound in the presence of fluconazole (+) [12] [µg/mL] | MIC of compound in the absence of fluconazole (−) [12] [µg/mL] | MIC of compound in the presence of fluconazole (+) [15] | MIC of compound in the absence of fluconazole (−) [15] [µg/mL] | further results
1 | CO[C@@H]1C(C)=C[C@H]2C(=O)O[C@H]3C[C@@H](C/C=C(\C)C[C@@H](C)/C=C/C=C4\CO[C@H]1[C@@]42O)O[C@]1(C3)C[C@H](O)[C@H](C)[C@@H](/C(C)=C/C(C)C)O1 [Compound 16, LL-F2849λ (nemedectinλ)] | > 64 | > 64 | 32 | > 64 | > 64 | > 64 | >64 | 1 | >64 | 0.125 | 0.125 | >64 | > 64 | > 64 | > 64 | > 64 | 64 | > 64 | 0.125 µg/mL | > 64 | IC50 ([1]; read-out: FEPIhalf (concentration needed to reduce activity of efflux pump by 50%), YEM-37 pCDR2, fluconazole fixed at FLUhalf 1): 0.399 µM; FEPI MIC with fluconazole, 80% Inh [5]: >64; MIC of compound in the presence of fluconazole (+) [6]: ≦0.03; IC50 ([8]; read-out: FEPIhalf (concentration needed to reduce activity of efflux pump by 50%), YEM-39 pCgCDR, fluconazole fixed at FLUhalf 4): 102 µM; IC50 ([9]; read-out: FEPIhalf (concentration needed to reduce activity of efflux pump by 50%), YEM-38 pFLU, fluconazole fixed at FLUhalf 2): > 102 µM; IC50 ([10]; read-out: FEPIhalf (concentration needed to reduce activity of efflux pump by 50%), YEM-1 pCDRI, fluconazole fixed at FLUhalf 5.6): 1.6 µM; MIC of compound in the presence of fluconazole (+) [11]: 2 µg/mL; IC50 ([13]; read-out: FEPIhalf (concentration needed to reduce activity of efflux pump by 50%), YEM-2 pBEN, fluconazole fixed at FLUhalf 5.6): > 102 µM; FEPIhalf (concentration needed to reduce activity of efflux pump by 50%) [14, 16]: >64
2 | 5-Keto-8-deoxymilbemycin β1 [Compound 22] | > 64 | > 64 | > 64 | > 64 | – | > 64 | – | >64 | >64 | ≦0.063 | ≦0.063 | >64 | > 64 | > 64 | > 64 | > 64 | > 64 | > 64 | ≦0.03 | > 64 | FEPIhalf (concentration needed to reduce activity of efflux pump by 50%) [1, 17]: 1; MIC of compound in the presence of fluconazole (+) [4, 18]: 8 µg/mL; FEPI MIC with fluconazole, 60% Inh [5, 19]: >64; FEPI MIC with fluconazole, 80% Inh [5, 20]: >64; MIC of compound in the presence of fluconazole (+) [6, 21]: ≦0.03; FEPIhalf (concentration needed to reduce activity of efflux pump by 50%) [8, 22]: 64; FEPIhalf (concentration needed to reduce activity of efflux pump by 50%) [9, 23]: >64; FEPIhalf (concentration needed to reduce activity of efflux pump by 50%) [10, 24]: <0.06; MIC of compound in the presence of fluconazole (+) [11, 25]: > 64 µg/mL; FEPIhalf (concentration needed to reduce activity of efflux pump by 50%) [13, 26]: >64; FEPIhalf (concentration needed to reduce activity of efflux pump by 50%) [14]: >64
3 | CCCCC(C)C(=O)OC1C(C)C(C)OC2(CC3CC(C/C=C(\C)CC(C)/C=C/C=C4\COC5C(O)C(C)=CC(C(=O)O3)C45O)O2)C1O (stereo not drawn) [Compound 8, Milbemycin α5] | > 64 | > 64 | 2 | > 64 | – | > 64 | – | 1 | 8 | ≦0.063 | ≦0.063 | >64 | > 64 | > 64 | > 64 | > 64 | > 64 | > 64 | 0.125 µg/mL | > 64 | FEPIhalf (concentration needed to reduce activity of efflux pump by 50%) [1, 17]: 2; MIC of compound in the presence of fluconazole (+) [4, 18]: 32 µg/mL; FEPI MIC with fluconazole, 60% Inh [5, 19]: 1; FEPI MIC with fluconazole, 80% Inh [5, 20]: >64; MIC of compound in the presence of fluconazole (+) [6, 21]: ≦0.03; FEPIhalf (concentration needed to reduce activity of efflux pump by 50%) [8, 22]: 8; FEPIhalf (concentration needed to reduce activity of efflux pump by 50%) [9, 23]: >64; FEPIhalf (concentration needed to reduce activity of efflux pump by 50%) [10, 24]: 0.5; MIC of compound in the presence of fluconazole (+) [11, 25]: 8 µg/mL; FEPIhalf (concentration needed to reduce activity of efflux pump by 50%) [13, 26]: 16; FEPIhalf (concentration needed to reduce activity of efflux pump by 50%) [14]: >64
4 | CC[C@H]1O[C@]2(CC[C@@H]1C)C[C@@H]1C[C@@H](C/C=C(\C)C[C@@H](C)/C=C/C=C3\CO[C@@H]4[C@H](O)C(C)=C[C@@H](C(=O)O1)[C@]34O)O2 [Compound 7, Milbemycin α3] | > 64 | > 64 | > 64 | > 64 | 16 | > 64 | >64 | >64 | >64 | ≦0.063 | ≦0.063 | >64 | > 64 | > 64 | > 64 | > 64 | > 64 | > 64 | 0.125 µg/mL | > 64 | IC50 [1]: 14.7 µM; FEPI MIC with fluconazole, 80% Inh [5]: >64; MIC of compound in the presence of fluconazole (+) [6]: ≦0.03; IC50 [8]: 29.5 µM; IC50 [9]: > 118 µM; IC50 [10]: 0.921 µM; MIC of compound in the presence of fluconazole (+) [11]: > 64 µg/mL; IC50 [13]: 29.5 µM; FEPIhalf (concentration needed to reduce activity of efflux pump by 50%) [14, 16]: >64
